Measurements as given in article PMC4509728, “Crystal Structures Reveal that the Reaction Mechanism of Imidazoleglycerol-Phosphate Dehydratase Is Controlled by Switching Mn(II) Coordination” (Structure(London, England:1993), 2015).

Biological target: T1, IGPD2 (construct B) (Arabidopsis thaliana, UniProt O23346, E73Q)
T1 construct: gene HISN5B; construct B, residues 69-272, signal peptide removed and further N-terminal truncation; pET24a, E. coli BL21(DE3); homo 24mer, site formed by three chains
T1 sequence (O23346 69-272 E73Q): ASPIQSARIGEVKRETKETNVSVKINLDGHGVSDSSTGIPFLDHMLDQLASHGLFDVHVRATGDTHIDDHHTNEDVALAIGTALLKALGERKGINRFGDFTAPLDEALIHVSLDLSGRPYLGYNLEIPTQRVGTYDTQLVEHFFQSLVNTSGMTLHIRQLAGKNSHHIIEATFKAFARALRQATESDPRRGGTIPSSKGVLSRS
Experiment: X-ray crystallography of the co-crystal ([…] Å form A)
Format: binding
Conditions: inactive mutant, Mn(II), mixed occupancy with 2R3S IGP at the same site

O=P(O)(O)OC[C@H](O)[C@@H](O)c1cnc[nH]1 [2S3S diastereoisomer of IGP]
X-ray crystallography of the co-crystal (1.12 Å form A): Both diastereoisomers bind at the same site
